# Columns and labels:
# LouNH91 NSCLC cell line = assay: Cellular growth inhibition (CellTiter Glo viability assay); format: cell-based; settings: Homo sapiens, LouNH91
# H322M NSCLC cell line = assay: as above; format: cell-based; settings: Homo sapiens, NCI-H322M
# H460 NSCLC cell line = assay: as above; format: cell-based; settings: Homo sapiens
# H1648 NSCLC cell line = assay: as above; format: cell-based; settings: Homo sapiens
# H2077 NSCLC cell line = assay: as above; format: cell-based; settings: Homo sapiens, H2077
# H2172 NSCLC cell line = assay: as above; format: cell-based; settings: Homo sapiens
# H2009 NSCLC cell line = assay: as above; format: cell-based; settings: Homo sapiens
# HCC4006 NSCLC cell line = assay: as above; format: cell-based; settings: Homo sapiens
# H1666 NSCLC cell line = assay: as above; format: cell-based; settings: Homo sapiens
# H1395 NSCLC cell line = assay: as above; format: cell-based; settings: Homo sapiens
# Calu6 NSCLC cell line = assay: as above; format: cell-based; settings: Homo sapiens
# H157 NSCLC cell line = assay: as above; format: cell-based; settings: Homo sapiens
# HCC78 NSCLC cell line = assay: as above; format: cell-based; settings: Homo sapiens
# H520 NSCLC cell line = assay: as above; format: cell-based; settings: Homo sapiens
# PC9 NSCLC cell line = assay: as above; format: cell-based; settings: Homo sapiens, PC9
# HCC366 NSCLC cell line = assay: as above; format: cell-based; settings: Homo sapiens
# MAP4K4 = molecular target: T1, MAP4K4 (Homo sapiens, UniProt O95819); assay: KinAffinity target profiling; format: binding; settings: PC9 cell extract, read-out: KD_free
# T1 construct: endogenous in cells; host or cells: PC9 cells (lysate)
# Method: For in vitro association experiments 4×10^8 PC9 cells were lysed in buffer containing 20 mM HEPES pH 7.5, 400 mM NaCl. 0.25% Triton X-100, 1 mM DTT, 1.5 mM MgCl2, 0.5 mM ZnCl2, 0.5 mM EDTA, 0.5 mM EGTA, 1600 U/ml Benzonase plus additives (10 μg/ml aprotinin, 10 μg/ml leupeptin, 1 mM PMSF, 1 mM Na3VO4, 10 mM NaF). After centrifugation the supernatant was adjusted to 1 M NaCl, filtered through a 0.45 μm celluloseacetate filter and subjected to KinAffinity™ beads representing several different broad-spectrum kinase inhibitors immobilized on Sepharose beads. For each in vitro association experiment 750 μl cell extract (4 mg/ml) were incubated with 30 μl KinAffinity™ beads for 2.5 h at 4° C. […] Alternatively, the inhibitor (3 nM, 30 nM, 100 nM, 300 nM, 3 μM) and KinAffinity™ beads were added simultaneously to the cell extract. […] The extracted peptides were derivatized for quantitative mass spectrometry using the TMT 6-plex reagent according to the manufactures instructions and were subsequently combined for mass spectrometric analysis.
# Mass spectrometric analysis of the labeled and combined peptide fractions was carried out by on-line nanoLC-MS/MS. The samples were loaded directly by an Agilent 1200 nanoflow system (Agilent Technologies) on a 15 cm fused silica emitter (New Objective) packed in-house with reversed phase material (Reprusil-Pur C18-AQ, 3 μm, Dr. Maisch GmbH) at a flow of […]. The bound peptides were eluted by a gradient from 2% to 40% solvent B (80% ACN, 0.5% HOAc) at a flow of […] and sprayed directly into an LTQ-Orbitrap XL mass spectrometer (Thermo Fischer Scientific) at a spray voltage of 2 kV applying a nano electrospray ion source (ProxeonBiosystems). The mass spectrometer was operated in the positive ion mode and a data dependent switch between MS and MS/MS acquisition. To improve mass accuracy in the MS mode the lock-mass option was enabled. Full scans were acquired in the orbitrap at a resolution R=60 000 and a target value of 1 000 000 charges. […] The resulting fragmentation spectra were also recorded in the linear ion trap.
# Regarding the search parameters, the minimal peptide length was set to 6 amino acids, trypsin was selected as proteolytic enzyme and maximally 2 missed cleavage sites were allowed. […] The maximal mass deviation of precursor and fragment masses was set to 7 ppm and 0.5 Da. A false discovery rate (FDR) of 0.01 was selected for proteins and peptides and a posterior error propability (PEP) below or equal to 0.1 for each MS/MS spectrum was required. The intensities of the TMT reporter ions were read from the msm files. For each protein group identified by MaxQuant the MS/MS spectra corresponding to razor peptides of this protein group were collected, and the reporter ion intensities were averaged over all MS/MS spectra. Finally the sigmoid model y=1−a/(1+(x/b)^c) was fitted to the binding values for each protein group. Similarly the model y=a/(1+(x/b)^c) was fitted to the competition values.
# H2030 NSCLC cell line = assay: Cellular growth inhibition (CellTiter Glo viability assay); format: cell-based; settings: Homo sapiens
# HCC2279 NSCLC cell line = assay: as above; format: cell-based; settings: Homo sapiens, HCC2279
# [1] = read-out: Sensitivity Saracatinib
# [2] = 96 hours of treatment, read-out: GI50
# T1 sequence (O95819 whole entry): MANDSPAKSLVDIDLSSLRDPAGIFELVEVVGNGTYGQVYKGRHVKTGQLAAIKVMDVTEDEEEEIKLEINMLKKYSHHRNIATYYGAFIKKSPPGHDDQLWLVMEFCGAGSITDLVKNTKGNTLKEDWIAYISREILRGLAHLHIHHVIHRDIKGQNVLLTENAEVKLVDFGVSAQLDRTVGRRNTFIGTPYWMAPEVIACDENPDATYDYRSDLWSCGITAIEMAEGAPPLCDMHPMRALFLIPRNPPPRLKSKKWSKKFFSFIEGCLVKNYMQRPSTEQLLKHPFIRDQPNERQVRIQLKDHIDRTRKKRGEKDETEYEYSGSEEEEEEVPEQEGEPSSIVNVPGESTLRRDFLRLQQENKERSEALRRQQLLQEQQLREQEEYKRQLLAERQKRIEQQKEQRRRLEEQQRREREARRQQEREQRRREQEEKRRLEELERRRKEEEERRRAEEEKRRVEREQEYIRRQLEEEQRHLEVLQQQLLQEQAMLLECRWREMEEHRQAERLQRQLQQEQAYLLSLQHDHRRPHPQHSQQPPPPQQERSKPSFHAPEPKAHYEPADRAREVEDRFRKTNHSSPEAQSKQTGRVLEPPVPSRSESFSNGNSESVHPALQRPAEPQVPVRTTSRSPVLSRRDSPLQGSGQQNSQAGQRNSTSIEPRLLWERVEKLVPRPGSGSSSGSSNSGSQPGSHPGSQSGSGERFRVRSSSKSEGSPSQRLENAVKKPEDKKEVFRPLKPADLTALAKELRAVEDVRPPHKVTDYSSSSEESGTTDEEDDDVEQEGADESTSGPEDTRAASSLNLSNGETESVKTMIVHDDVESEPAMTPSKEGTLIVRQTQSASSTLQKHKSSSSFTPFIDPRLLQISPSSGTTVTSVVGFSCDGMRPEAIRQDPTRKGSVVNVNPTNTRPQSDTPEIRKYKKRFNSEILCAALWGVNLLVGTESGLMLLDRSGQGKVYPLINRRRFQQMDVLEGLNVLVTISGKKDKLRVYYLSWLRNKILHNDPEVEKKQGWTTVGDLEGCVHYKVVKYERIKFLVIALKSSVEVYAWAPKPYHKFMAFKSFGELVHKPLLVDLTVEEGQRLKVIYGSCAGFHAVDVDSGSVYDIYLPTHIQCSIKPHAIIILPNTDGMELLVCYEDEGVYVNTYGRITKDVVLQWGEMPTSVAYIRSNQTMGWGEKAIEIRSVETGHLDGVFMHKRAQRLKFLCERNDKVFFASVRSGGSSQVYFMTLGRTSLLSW
compound,measurement,setting,value
"CN1CCN(CCOc2cc(OC3CCOCC3)c3c(Nc4c(Cl)ccc5c4OCO5)ncnc3c2)CC1 [saracatinib, N-(5-Chloro-1,3-benzodioxol-4-yl)-7-[2-(4-methyl-1-piperazinyl)ethoxy]-5-[(tetrahydro-2H-pyran-4-yl)oxy]-4-quinazolinamine]",IC50,"LouNH91 NSCLC cell line; LOU-NH91, read-out: Sensitivity Saracatinib",< 3.5 µM
same,GI50,"LouNH91 NSCLC cell line; LOU-NH91, 96 hours of treatment, read-out: GI50",1.18 µM
same,IC50,H322M NSCLC cell line; [1],< 3.5 µM
same,GI50,"H322M NSCLC cell line; H322M, 96 hours of treatment, read-out: GI50",0.876 µM
same,IC50,"H460 NSCLC cell line; NCI-H460, read-out: Sensitivity Saracatinib",> 3.5 µM
same,GI50,"H460 NSCLC cell line; NCI-H460, H460, 96 hours of treatment, read-out: GI50",12.1 µM
same,IC50,"H1648 NSCLC cell line; NCI-H1648, read-out: Sensitivity Saracatinib",< 3.5 µM
same,GI50,"H1648 NSCLC cell line; NCI-H1648, H1648, 96 hours of treatment, read-out: GI50",1.51 µM
same,IC50,H2077 NSCLC cell line; [1],> 3.5 µM
same,GI50,H2077 NSCLC cell line; [2],14.8 µM
same,IC50,"H2172 NSCLC cell line; NCI-H2172, read-out: Sensitivity Saracatinib",> 3.5 µM
same,GI50,"H2172 NSCLC cell line; NCI-H2172, H2172, 96 hours of treatment, read-out: GI50",28.5 µM
same,IC50,"H2009 NSCLC cell line; NCI-H2009, read-out: Sensitivity Saracatinib",> 3.5 µM
same,GI50,"H2009 NSCLC cell line; NCI-H2009, H2009, 96 hours of treatment, read-out: GI50",4.31 µM
same,IC50,"HCC4006 NSCLC cell line; HCC4006, read-out: Sensitivity Saracatinib",< 3.5 µM
same,GI50,"HCC4006 NSCLC cell line; HCC4006, 96 hours of treatment, read-out: GI50",0.132 µM
same,IC50,"H1666 NSCLC cell line; NCI-H1666, read-out: Sensitivity Saracatinib",< 3.5 µM
same,GI50,"H1666 NSCLC cell line; NCI-H1666, H1666, 96 hours of treatment, read-out: GI50",2.2 µM
same,IC50,"H1395 NSCLC cell line; NCI-H1395, read-out: Sensitivity Saracatinib",> 3.5 µM
same,GI50,"H1395 NSCLC cell line; NCI-H1395, H1395, 96 hours of treatment, read-out: GI50",31.7 µM
same,IC50,"Calu6 NSCLC cell line; Calu-6, read-out: Sensitivity Saracatinib",> 3.5 µM
same,GI50,"Calu6 NSCLC cell line; Calu-6, 96 hours of treatment, read-out: GI50",30 µM
same,IC50,"H157 NSCLC cell line; NCI-H157, read-out: Sensitivity Saracatinib",> 3.5 µM
same,GI50,"H157 NSCLC cell line; NCI-H157, H157, 96 hours of treatment, read-out: GI50",13.9 µM
same,IC50,"HCC78 NSCLC cell line; HCC78, read-out: Sensitivity Saracatinib",< 3.5 µM
same,GI50,"HCC78 NSCLC cell line; HCC78, 96 hours of treatment, read-out: GI50",0.267 µM
same,IC50,"H520 NSCLC cell line; NCI-H520, read-out: Sensitivity Saracatinib",> 3.5 µM
same,GI50,"H520 NSCLC cell line; NCI-H520, H520, 96 hours of treatment, read-out: GI50",4.56 µM
same,IC50,"PC9 NSCLC cell line; PC-9, read-out: Sensitivity Saracatinib",< 3.5 µM
same,GI50,PC9 NSCLC cell line; [2],0.147 µM
same,IC50,"HCC366 NSCLC cell line; HCC366, read-out: Sensitivity Saracatinib",< 3.5 µM
same,GI50,"HCC366 NSCLC cell line; HCC366, 96 hours of treatment, read-out: GI50",1.24 µM
same,Kd,MAP4K4,5.89 µM
same,IC50,"H2030 NSCLC cell line; NCI-H2030, read-out: Sensitivity Saracatinib",< 3.5 µM
same,GI50,"H2030 NSCLC cell line; NCI-H2030, H2030, 96 hours of treatment, read-out: GI50",0.443 µM
same,IC50,HCC2279 NSCLC cell line; [1],< 3.5 µM
same,GI50,HCC2279 NSCLC cell line; [2],0.66 µM
